Data taken from patent publication US10392368B2, “Pyrazolo and triazolo bicyclic compounds as JAK kinase inhibitors” (THERAVANCE BIOPHARMA R&D IP, LLC, priority 2017, dated 2019).
Where two headings read alike, the source gives them in different places.

Legend:
Tyk2 = molecular target: T1, Tyk2 (Homo sapiens, UniProt P29597); test: Biochemical Tyk2 kinase assay (LanthaScreen); settings: for Ki: read-out: Tyk 2 (pKi) (converted)
T1 construct: GST; purchased Life Technologies
Summary of the method: (§1)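 TR-FRET read-out: terbium anti-pSTAT1 (pTyr701) antibody, 2 nM, with 10 mM EDTA quench, emission ratio 520/495 nm. GST-JAK phosphorylates GFP-STAT1 peptide for 1 h at ambient temperature after 1 h compound pre-incubation. pIC50 from dose-response converted to pKi by Cheng-Prusoff.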

JAK3 = molecular target: T2, JAK3 (Homo sapiens, UniProt P52333); test: Biochemical JAK3 kinase assay (LanthaScreen); parameters: GST; purchased Life Technologies; settings: for Ki: read-out: JAK 3 (pKi) (converted)
T2 sequence (P52333 1-1124): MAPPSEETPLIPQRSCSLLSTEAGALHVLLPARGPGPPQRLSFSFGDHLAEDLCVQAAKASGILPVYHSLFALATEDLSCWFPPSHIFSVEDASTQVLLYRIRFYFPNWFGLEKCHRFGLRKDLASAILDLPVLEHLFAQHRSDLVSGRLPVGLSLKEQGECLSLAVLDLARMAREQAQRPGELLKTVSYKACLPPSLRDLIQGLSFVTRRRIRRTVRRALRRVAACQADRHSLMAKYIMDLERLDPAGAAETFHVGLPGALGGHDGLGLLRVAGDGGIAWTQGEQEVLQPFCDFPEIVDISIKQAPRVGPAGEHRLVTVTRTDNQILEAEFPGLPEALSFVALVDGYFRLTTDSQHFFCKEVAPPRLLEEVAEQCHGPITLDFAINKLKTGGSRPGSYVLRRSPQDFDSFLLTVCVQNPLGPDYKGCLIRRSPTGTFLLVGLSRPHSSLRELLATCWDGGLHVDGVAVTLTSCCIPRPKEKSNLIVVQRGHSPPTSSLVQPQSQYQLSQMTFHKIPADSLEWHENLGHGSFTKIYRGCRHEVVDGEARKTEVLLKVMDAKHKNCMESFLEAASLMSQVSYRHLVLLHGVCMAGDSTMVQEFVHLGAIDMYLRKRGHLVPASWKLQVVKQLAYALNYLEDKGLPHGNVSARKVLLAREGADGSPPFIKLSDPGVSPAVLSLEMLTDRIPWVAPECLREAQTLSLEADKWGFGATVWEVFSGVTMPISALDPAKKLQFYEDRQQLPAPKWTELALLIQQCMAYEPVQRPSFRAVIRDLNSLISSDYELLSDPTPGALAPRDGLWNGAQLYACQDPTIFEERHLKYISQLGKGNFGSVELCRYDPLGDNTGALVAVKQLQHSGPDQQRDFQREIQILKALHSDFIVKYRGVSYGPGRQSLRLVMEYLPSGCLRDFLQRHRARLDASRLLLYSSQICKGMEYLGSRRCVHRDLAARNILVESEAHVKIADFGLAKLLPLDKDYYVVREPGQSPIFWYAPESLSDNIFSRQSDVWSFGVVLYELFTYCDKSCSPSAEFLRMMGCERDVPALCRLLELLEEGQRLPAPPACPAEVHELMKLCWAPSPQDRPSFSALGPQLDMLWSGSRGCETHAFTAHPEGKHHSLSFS
Summary of the method: as §1

JAK1 = molecular target: T3, JAK1 (Homo sapiens, UniProt P23458); test: Biochemical JAK1 kinase assay (LanthaScreen); settings: for Ki: read-out: JAK 1 (pKi) (converted)
T3 construct: GST; purchased Life Technologies
Summary of the method: as §1

JAK2 = molecular target: T4, JAK2 (Homo sapiens, UniProt O60674); test: Biochemical JAK2 kinase assay (LanthaScreen); settings: for Ki: read-out: JAK 2 (pKi) (converted)
T4 construct: GST; purchased Life Technologies
Summary of the method: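 pKi values derive from pIC50 via Cheng-Prusoff, with IC50 from a 4-parameter fit of percent-inhibition TR-FRET data using Tb-anti-pSTAT1 (pTyr701) detection. Compound, GST-JAK2 and GFP-STAT1 substrate were pre-incubated 1 h, then ATP started a 1 h ambient reaction (HEPES pH 7.5, 10 mM MgCl2, 1% DMSO).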

[1] = test system: IL-2 stimulated pSTAT5 in Tall-1 T cells; test: Cellular JAK3 potency assay: inhibition of IL-2 stimulated pSTAT5 in Tall-1 T cells; assay type: cell-based, human; settings: for IC50: Homo sapiens, read-out: Tall-1 (pIC50) (converted)
Summary of the method: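 Tall-1 human T cells were preincubated with compound for 1 h at 37° C, then stimulated with IL-2 (300 ng/ml final) for 30 min. STAT5 phosphorylation in lysates was read by AlphaLisa bead emission, and IC50 from inhibition curves is given as pIC50 (mean±SD).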

[2] = selectivity: difference of pKi JAK3 and pKi JAK1
[3] = IL-2 stimulated pSTAT5 in Tall-1 T cells
[4] = TALL-1, IL-2 stimulated pSTAT5 in Tall-1 T cells
[5] = selectivity JAK3 over JAK1, difference of pKi
[6] = IL-2 stimulated pSTAT5, Tall-1 T cells
[7] = TALL-1, IL-2 stimulated pSTAT5, Tall-1 T cells

T1 sequence (P29597 whole entry): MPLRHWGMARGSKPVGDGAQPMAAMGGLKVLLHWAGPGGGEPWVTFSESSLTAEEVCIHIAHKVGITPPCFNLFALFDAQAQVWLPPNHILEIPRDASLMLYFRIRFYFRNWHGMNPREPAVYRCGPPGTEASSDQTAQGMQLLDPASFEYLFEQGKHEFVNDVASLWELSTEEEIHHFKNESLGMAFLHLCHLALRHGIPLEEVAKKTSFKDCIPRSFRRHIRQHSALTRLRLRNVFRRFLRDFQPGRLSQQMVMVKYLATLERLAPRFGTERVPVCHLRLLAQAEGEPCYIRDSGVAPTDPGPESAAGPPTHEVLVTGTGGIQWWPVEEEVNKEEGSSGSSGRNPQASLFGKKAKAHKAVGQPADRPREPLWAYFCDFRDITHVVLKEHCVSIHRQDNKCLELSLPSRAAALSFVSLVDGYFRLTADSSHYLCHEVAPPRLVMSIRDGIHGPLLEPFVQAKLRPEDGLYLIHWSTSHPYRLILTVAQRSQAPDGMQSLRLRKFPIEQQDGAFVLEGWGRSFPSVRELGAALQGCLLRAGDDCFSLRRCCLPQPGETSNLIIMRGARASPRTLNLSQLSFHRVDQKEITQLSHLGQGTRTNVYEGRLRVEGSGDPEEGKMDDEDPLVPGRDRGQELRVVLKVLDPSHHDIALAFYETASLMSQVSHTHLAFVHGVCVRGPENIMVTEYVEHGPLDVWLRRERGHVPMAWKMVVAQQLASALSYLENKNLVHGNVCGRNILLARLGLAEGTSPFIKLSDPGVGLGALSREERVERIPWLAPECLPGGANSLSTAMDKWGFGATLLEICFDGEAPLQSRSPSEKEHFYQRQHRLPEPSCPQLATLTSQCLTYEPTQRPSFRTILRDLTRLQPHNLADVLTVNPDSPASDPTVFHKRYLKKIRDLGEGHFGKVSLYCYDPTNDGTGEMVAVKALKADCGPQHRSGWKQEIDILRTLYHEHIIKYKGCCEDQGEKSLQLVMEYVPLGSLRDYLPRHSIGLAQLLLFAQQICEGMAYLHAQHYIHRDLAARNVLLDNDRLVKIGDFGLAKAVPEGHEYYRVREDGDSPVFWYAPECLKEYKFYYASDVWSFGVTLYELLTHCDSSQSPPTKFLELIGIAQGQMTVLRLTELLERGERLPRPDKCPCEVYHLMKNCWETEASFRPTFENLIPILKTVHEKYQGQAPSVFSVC
T4 sequence (O60674 whole entry): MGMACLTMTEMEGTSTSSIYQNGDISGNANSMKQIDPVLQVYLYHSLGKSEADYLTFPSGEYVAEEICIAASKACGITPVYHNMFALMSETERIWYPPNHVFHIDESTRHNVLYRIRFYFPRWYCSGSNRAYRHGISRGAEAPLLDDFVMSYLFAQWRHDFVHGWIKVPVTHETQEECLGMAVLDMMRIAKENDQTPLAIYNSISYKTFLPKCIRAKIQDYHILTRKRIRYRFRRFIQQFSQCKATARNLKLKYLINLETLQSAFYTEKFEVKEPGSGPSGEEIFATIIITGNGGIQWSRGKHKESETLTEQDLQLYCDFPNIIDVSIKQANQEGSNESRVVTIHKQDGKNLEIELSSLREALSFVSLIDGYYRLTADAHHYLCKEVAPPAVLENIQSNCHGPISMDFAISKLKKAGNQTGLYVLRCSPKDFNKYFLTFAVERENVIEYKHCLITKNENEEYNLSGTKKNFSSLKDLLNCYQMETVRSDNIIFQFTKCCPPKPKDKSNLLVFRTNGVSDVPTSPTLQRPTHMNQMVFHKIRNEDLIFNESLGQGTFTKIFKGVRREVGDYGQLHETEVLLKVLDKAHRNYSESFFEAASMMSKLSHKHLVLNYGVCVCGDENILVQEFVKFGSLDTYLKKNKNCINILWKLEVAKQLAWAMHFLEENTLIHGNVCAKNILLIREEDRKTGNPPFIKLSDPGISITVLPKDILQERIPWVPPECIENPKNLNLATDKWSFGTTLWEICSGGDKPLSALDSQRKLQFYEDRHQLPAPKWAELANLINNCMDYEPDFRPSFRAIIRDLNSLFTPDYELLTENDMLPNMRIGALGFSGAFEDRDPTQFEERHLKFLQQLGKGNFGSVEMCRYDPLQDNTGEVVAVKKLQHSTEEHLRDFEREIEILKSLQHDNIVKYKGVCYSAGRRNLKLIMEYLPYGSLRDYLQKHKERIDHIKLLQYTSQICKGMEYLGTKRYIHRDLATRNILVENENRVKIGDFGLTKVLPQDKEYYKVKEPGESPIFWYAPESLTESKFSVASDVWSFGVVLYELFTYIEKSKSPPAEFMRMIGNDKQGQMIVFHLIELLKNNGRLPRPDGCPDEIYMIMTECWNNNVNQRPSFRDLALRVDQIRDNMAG
T3 sequence (P23458 whole entry): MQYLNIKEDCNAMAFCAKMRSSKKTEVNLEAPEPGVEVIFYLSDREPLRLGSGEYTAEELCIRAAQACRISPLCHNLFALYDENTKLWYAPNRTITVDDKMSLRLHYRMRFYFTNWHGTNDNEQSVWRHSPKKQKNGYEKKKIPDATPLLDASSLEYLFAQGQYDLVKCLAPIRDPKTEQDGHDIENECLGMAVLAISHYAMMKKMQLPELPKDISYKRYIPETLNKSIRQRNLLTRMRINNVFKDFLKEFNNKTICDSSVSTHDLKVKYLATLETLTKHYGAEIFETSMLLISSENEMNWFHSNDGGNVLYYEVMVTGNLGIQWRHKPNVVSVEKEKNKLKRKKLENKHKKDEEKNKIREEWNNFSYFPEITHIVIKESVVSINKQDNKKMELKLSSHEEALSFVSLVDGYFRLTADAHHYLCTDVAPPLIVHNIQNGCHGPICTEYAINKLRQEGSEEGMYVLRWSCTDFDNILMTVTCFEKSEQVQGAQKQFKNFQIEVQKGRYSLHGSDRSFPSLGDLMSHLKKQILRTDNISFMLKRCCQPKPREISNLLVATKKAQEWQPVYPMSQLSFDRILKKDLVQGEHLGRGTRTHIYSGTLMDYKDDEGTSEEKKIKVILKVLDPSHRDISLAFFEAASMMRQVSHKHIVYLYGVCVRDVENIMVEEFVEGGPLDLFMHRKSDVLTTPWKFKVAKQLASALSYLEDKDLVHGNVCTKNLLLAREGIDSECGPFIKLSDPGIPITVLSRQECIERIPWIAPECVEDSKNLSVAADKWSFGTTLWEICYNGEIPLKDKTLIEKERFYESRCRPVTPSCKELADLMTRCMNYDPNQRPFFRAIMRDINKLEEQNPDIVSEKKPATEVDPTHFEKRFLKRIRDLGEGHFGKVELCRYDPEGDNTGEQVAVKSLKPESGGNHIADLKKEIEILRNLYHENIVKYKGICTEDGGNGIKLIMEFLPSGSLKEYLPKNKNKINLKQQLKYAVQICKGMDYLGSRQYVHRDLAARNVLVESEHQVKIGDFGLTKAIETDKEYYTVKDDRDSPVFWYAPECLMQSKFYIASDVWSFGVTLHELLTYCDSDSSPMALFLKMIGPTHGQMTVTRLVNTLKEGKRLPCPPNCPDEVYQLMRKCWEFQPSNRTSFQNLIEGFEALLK

Compound | Tyk 2 (pKi) (Tyk2) | JAK 3 (pKi) (JAK3) | JAK3 (pKi)-JAK1 (pKi) (JAK3; [2]) | JAK 1 (pKi) (JAK1) | JAK 2 (pKi) (JAK2) | Tall-1 (pIC50) [1, 3] | Ki (Tyk2) | Ki (JAK3) | Ki (JAK1) | Ki (JAK2) | IC50 [1, 4] | JAK3 (pKi)-JAK1 (pKi) (JAK3; [5]) | Tall-1 (pIC50) [1, 6] | IC50 [1, 7]
C=CC(=O)N1CC(COc2nc(-c3ccc(O)cc3)nc3[nH]ncc23)C1C (stereo not drawn) [Compound 3-31] | E (a pKi value of 7 or below (Ki of 100 nM or above)) | A (a pKi value≥10 (Ki≤0.1 nM)) | A (a value of 3 or above) | E (a pKi value of 7 or below (Ki of 100 nM or above)) | E (a pKi value of 7 or below (Ki of 100 nM or above)) | B (a pIC50 value between 6.7 (included) and 7.5 (IC50 between 200 nM and 32 nM)) |  |  |  |  |  |  |  | 
C=CC(=O)N1CC(COc2nc(-c3ccc(O)c(Cl)c3)nc3[nH]ncc23)C1 [Compound 3-38] |  |  | A (a value of 3 or above) |  |  |  | > 0.1 µM | < 0.0001 µM | > 0.1 µM | > 0.1 µM | 0.0316 to 0.2 µM |  |  | 
C=CC(=O)N1CC[C@@H](Oc2nc(-c3ccc(O)cc3)nc3[nH]ncc23)C[C@H]1C [Compound 13-10] | E (a pKi value of 7 or below (Ki of 100 nM or above)) | B (a pKi value between 9 and 10 (Ki between 1 nM and 0.1 nM)) |  | E (a pKi value of 7 or below (Ki of 100 nM or above)) | E (a pKi value of 7 or below (Ki of 100 nM or above)) |  |  |  |  |  |  | A (a value of 3 or above) | B (a pIC50 value between 6.7 (included) and 7.5 (IC50 between 200 nM and 32 nM)) | 
C=CC(=O)N1CC(C#N)(COc2cc(-c3ccc(O)cc3)cc3[nH]ncc23)C1 [Compound 3-20] | E (a pKi value of 7 or below (Ki of 100 nM or above)) | B (a pKi value between 9 and 10 (Ki between 1 nM and 0.1 nM)) | B (a value of 2.3 to 3) | E (a pKi value of 7 or below (Ki of 100 nM or above)) | D (a pKi value between 7 and 8 (Ki between 100 nM and 10 nM)) | B (a pIC50 value between 6.7 (included) and 7.5 (IC50 between 200 nM and 32 nM)) |  |  |  |  |  |  |  | 
C=CC(=O)N1C2CCC1CC(Oc1cc(-c3ccc(O)cc3)cc3[nH]ncc13)C2 (stereo not drawn) [Compound 9-1] | E (a pKi value of 7 or below (Ki of 100 nM or above)) | A (a pKi value≥10 (Ki≤0.1 nM)) |  | E (a pKi value of 7 or below (Ki of 100 nM or above)) | D (a pKi value between 7 and 8 (Ki between 100 nM and 10 nM)) |  |  |  |  |  |  | A (a value of 3 or above) | A (a pIC50 value≥7.5 (IC50≤32 nM)) | 
CN(C)C/C=C/C(=O)N1CC[C@H](COc2cc(-c3ccc(O)c(Cl)c3)cc3[nH]ncc23)C1 [Compound 2-2] | E (a pKi value of 7 or below (Ki of 100 nM or above)) | B (a pKi value between 9 and 10 (Ki between 1 nM and 0.1 nM)) | A (a value of 3 or above) | E (a pKi value of 7 or below (Ki of 100 nM or above)) | D (a pKi value between 7 and 8 (Ki between 100 nM and 10 nM)) | B (a pIC50 value between 6.7 (included) and 7.5 (IC50 between 200 nM and 32 nM)) |  |  |  |  |  |  |  | 
C=CC(=O)N1CC(COc2cc(-c3ccc(O)c(Cl)c3)cc3[nH]ncc23)(OC)C1 [Compound 3-73] | E (a pKi value of 7 or below (Ki of 100 nM or above)) | A (a pKi value≥10 (Ki≤0.1 nM)) | A (a value of 3 or above) | E (a pKi value of 7 or below (Ki of 100 nM or above)) | E (a pKi value of 7 or below (Ki of 100 nM or above)) | A (a pIC50 value≥7.5 (IC50≤32 nM)) |  |  |  |  |  |  |  | 
C=CC(=O)N1CC(C)(CNc2cc(-c3ccc(O)cc3)cc3[nH]ncc23)C1 [Compound 4-2] | E (a pKi value of 7 or below (Ki of 100 nM or above)) | B (a pKi value between 9 and 10 (Ki between 1 nM and 0.1 nM)) | B (a value of 2.3 to 3) | D (a pKi value between 7 and 8 (Ki between 100 nM and 10 nM)) | D (a pKi value between 7 and 8 (Ki between 100 nM and 10 nM)) | B (a pIC50 value between 6.7 (included) and 7.5 (IC50 between 200 nM and 32 nM)) |  |  |  |  |  |  |  | 
C=CC(=O)N1CC[C@H](Oc2cc(-c3ccc(O)cc3)cc3[nH]nc(OC)c23)C1 [Compound 1-44] |  |  | A (a value of 3 or above) |  |  |  | > 0.1 µM | < 0.0001 µM | > 0.1 µM | > 0.1 µM | < 0.0316 µM |  |  | 
CN(C/C=C/C(=O)N1CC(COc2cc(-c3ccc(O)cc3)cc3[nH]ncc23)C1)C(C)(C)C [Compound 3-116] |  |  | B (a value of 2.3 to 3) |  |  |  | > 0.1 µM | 0.0001 to 0.001 µM | > 0.1 µM | 0.01 to 0.1 µM | 0.0316 to 0.2 µM |  |  | 
C=CC(=O)N1CCCC(Oc2cc(-c3ccc(O)cc3)cc3[nH]ncc23)C1 (stereo not drawn) [Compound 8-1] | E (a pKi value of 7 or below (Ki of 100 nM or above)) | B (a pKi value between 9 and 10 (Ki between 1 nM and 0.1 nM)) |  | E (a pKi value of 7 or below (Ki of 100 nM or above)) | D (a pKi value between 7 and 8 (Ki between 100 nM and 10 nM)) |  |  |  |  |  |  | B (a value of 2.3 to 3) | A (a pIC50 value≥7.5 (IC50≤32 nM)) | 
C=CC(=O)N1CC(COc2cc(-c3ccc(O)c(OC)c3)cc3[nH]ncc23)C1 [Compound 3-83] |  |  | A (a value of 3 or above) |  |  |  | > 0.1 µM | < 0.0001 µM | > 0.1 µM | > 0.1 µM | < 0.0316 µM |  |  | 
C=CC(=O)N1CCC[C@H](Oc2cc(-c3ccc(O)c(Cl)c3)nc3[nH]ncc23)C1 [Compound 8-14] | E (a pKi value of 7 or below (Ki of 100 nM or above)) | A (a pKi value≥10 (Ki≤0.1 nM)) |  | E (a pKi value of 7 or below (Ki of 100 nM or above)) | E (a pKi value of 7 or below (Ki of 100 nM or above)) |  |  |  |  |  |  | A (a value of 3 or above) | B (a pIC50 value between 6.7 (included) and 7.5 (IC50 between 200 nM and 32 nM)) | 
C=CC(=O)N1CCC(C#N)(C(=O)Nc2cc(-c3ccc(O)cc3)cc3[nH]ncc23)CC1 [Compound 12-41] |  |  |  |  |  |  | > 0.1 µM | 0.0001 to 0.001 µM | > 0.1 µM | > 0.1 µM |  | A (a value of 3 or above) |  | < 0.0316 µM
C=CS(=O)(=O)N1CC[C@H](Oc2cc(-c3ccc(O)cc3)cc3[nH]ncc23)C1 [Compound 18, (S)-4-(4-((1-(vinylsulfonyl)pyrrolidin-3-yl)oxy)-1H-indazol-6-yl)phenol] |  |  | A (a value of 3 or above) |  |  |  | > 0.1 µM | 0.0001 to 0.001 µM | > 0.1 µM | 0.01 to 0.1 µM | < 0.0316 µM |  |  | 
C=CC(=O)N1CCC(COc2cc(-c3ccc(O)cc3)cc3[nH]ncc23)CC1 [Compound 12-27] |  |  |  |  |  |  | > 0.1 µM | < 0.0001 µM | > 0.1 µM | 0.01 to 0.1 µM |  | A (a value of 3 or above) |  | < 0.0316 µM
